Test results taken from patent US10071989B2, “Substituted cinnamamide derivative, preparation method and use thereof” (TASLY PHARMACEUTICAL GROUP CO., LTD., priority 2011, dated 2018).
“Also recorded” adds a separate entry of the source. Read-outs that look alike come from different tables or passages of the source. Marks after values point to notes of the source that are not given here.

Legend:
Format in all cases: in vivo
[1] = tested on: mice; assay: Anti-depression effect in the tested models (overall conclusion); conditions: in the tested model at the tested dose
From the text: Based on the aforesaid experiments, the following conclusion can be drawn: • 1.

[2] = tested on: C57BL/6 mice; assay: "Acquired despair" depression model of tail suspension test in mice; conditions: for Effect on immobility time in tail suspension test (in words): 10 mg/kg intragastric for 7 days, compared with the solvent control group
Experimental: 30 min after administration at 7th day, the mice was fixed on a sustainer with a rubberized cloth at 1 cm close to the end of the tail of mice, making the mice hanged upside down. The head of the mice was about 30 cm above the table and its sight was separated from the neighboring mouse with a plate. Usually, the mice might manage to struggle in hopes of overcoming the abnormal body position. […] The accumulated immobility time within 6 min of each mouse was observed, which was regarded as “despair time”.
(§1) 130 mice were randomly selected to observe the number of their autonomic activity. The method was the same with that of Experiment 1. 108 mice with the number of autonomic activity between 70˜140 were screened out, divided randomly into 9 groups, and intragastrically administrated with the drug compounds at a dose listed in Table 2, one time daily for 7 days consecutively. The solvent control group was administrated with 2% Tween-80 aqueous solution in the same volume. 30 min after administration at 6th day, the number of the autonomic activity of each mouse was observed. 30 min after administration at 7th day, the immobility time in tail suspension test was observed. The method was the same with that in Experiment 1.

[3] = tested on: C57BL/6 mice; assay: Depression model test of anti-blepharoptosis caused by reserpine (akinesia, blepharoptosis, shell temperature); conditions: for Improving akinesia, blepharoptosis and shell temperature: ranking among the tested compounds (in words): within the experiment; for Degree of eye-closure: score 0-4 one hour after reserpine; for responders at 10 mg/kg: Mus musculus, po, 1 h, one hour after reserpine, 7.5 cm circle, 15-second observation, read-out: “out-of-circle” ratio; for Blepharoptosis, shell temperature and “out-of-circle” ratio compared with Compound I-1 (in words): compared with I-1, p<0.05, p<0.01
Experimental: 120 male C57BL/6 mice were randomly selected to observe the number of their autonomic activity. The mice was placed into the YLS-1A multi-functional mice autonomic activity recorder, and after 1 min of adaption, the activity of the mice was counted within a time period from the end of 1st min to 4th min. 96 mice with the number of autonomic activity between 70˜140 were screened out, divided randomly into 8 groups, and intragastrically administrated with the drug compounds at a dose listed in Table 3, one time daily for 7 days consecutively. The solvent control group was administrated with 2% Tween-80 aqueous solution in the same volume. Except the normal control group, 30 min after the last administration, each group was injected intraperitoneally with reserpine at a dose of 4 mg/kg. Next, akinesia, blepharoptosis and shell temperature were observed.
I Akinesia: one hour after intraperitoneal injection of reserpine, the mice were placed at the center of a circle with a diameter of 7.5 cm for a 15-second observation to calculate the “out-of-circle” ratio.
II Blepharoptosis: one hour after intraperitoneal injection of reserpine, the eye closure of mice was observed and scored by the following standard: eyelids open, 0; eyelids ¼ closed, 1; eyelids 2/4 closed, 2; eyelids ¾ closed, 3; eyelids closed completely, 4.
III Shell temperature: two hours after intraperitoneal injection of reserpine, the shell temperature of the abdomen of the mice was measured.
120 C57BL/6 mice were randomly selected to observe the number of their autonomic activity. The method was the same with that of Experiment 1. 100 mice with the number of autonomic activity between 70˜140 were screened out, divided randomly into 10 groups, and intragastrically administrated with the drug compounds at a dose listed in Table 4, one time daily for 7 days consecutively. The mice in the normal group and the solvent control group were administrated with 2% Tween-80 aqueous solution in the same volume. Except the normal control group, 30 min after the last administration, each group was injected intraperitoneally with reserpine at a dose of 4 mg/kg. Next, akinesia, blepharoptosis and shell temperature were observed. Observation method was the same with that of Experiment 1.

[4] = tested on: C57BL/6 mice; assay: Number of autonomic activity of mice (YLS-1A autonomic activity recorder); conditions: for Effect on autonomic activity of mice (in words): 10 mg/kg intragastric, one week, compared with the solvent control group; for Number of Autonomic activity (time): 10 mg/kg intragastric once daily, counted 30 min after administration at 6th day
Experimental: 110 mice were randomly selected to observe the number of their autonomic activity. The mice was placed into the YLS-1A multi-functional mice autonomic activity recorder, and after 1 min of adaption, the mice's activity was counted within a time period from the end of 1st min to 4th min. 96 mice with the number of autonomic activity between 70˜140 were screened out, divided randomly into 8 groups, and intragastrically administrated with the drug compounds at a dose listed in Table 1, one time daily for 7 days consecutively. The solvent control group was administrated with 2% Tween-80 aqueous solution in the same volume. All mice were placed into the autonomic activity recorder 30 min after administration at 6th day. After 1 min of adaption, the mice's activity was counted within a time period from the end of 1st min to 4th min.
as §1

[5] = tested on: C57BL/6 mice; assay: Forced swimming experiment in mice; conditions: for Immobility time in the forced swimming test in mice(s): 30 min after last administration, end of 2nd min to 6th min; for Effect on immobility time in the forced swimming test (in words): within the dosage range (5-10 mg/kg), compared with the solvent control group
Experimental: After 1˜2 days of adaptive feed, 80 male C57BL/6 mice, aged 6˜8 weeks and weighing 18˜22 g, were placed into the YLS-1A multi-functional mice autonomic activity recorder. After 1 min of adaption, the activity of the mice was counted within a time period from the end of 1st min to 4th min. 60 mice with the number of autonomic activity between 70˜140 were screened out, divided randomly into 6 groups, and intragastrically administrated with the drug compounds at a dose listed in Table 5, one time daily for 7 days consecutively. The solvent control group was administrated with 2% Tween-80 aqueous solution in the same volume. After the administration at 6th day, the mice were placed into a cylindrical aquarium with a water depth of 10 cm and 25° C. to force the mice to swim. After 15 min, the mice were taken out, dried and returned to the cage. 24 hours later, 30 min after the last intragastrical administration, the mice were placed into a glass bottle with a diameter of 10 cm, a height of 30 cm and a water depth of 10 cm, and the temperature of the water in the bottle was at 25° C. The mice were separated with an opaque partition, so as not to influence each other. After 2 min of adaption, an accumulated immobility time from the end of 2nd min to 6th min was recorded.

[6] = 10 mg/kg, compared with I-1, p<0.05
[7] = 10 mg/kg intragastric 7 days, compared with the solvent control group
[8] = 10 mg/kg intragastric once daily for 7 days
[9] = 10 mg/kg, compared with the solvent control group
[10] = Experiment 2, 10 mg/kg intragastric 7 days, reserpine 4 mg/kg i.p., abdomen, two hours after reserpine, ±SD
[11] = Experiment 2, 10 mg/kg intragastric 7 days, reserpine 4 mg/kg i.p., ±SD
[12] = Experiment 2, 10 mg/kg intragastric 7 days, reserpine 4 mg/kg i.p.

Structure (SMILES) | Anti-depression effect compared with the pharmacologic effect of I-1 (in words) [1] | Effect on immobility time in tail suspension test (in words) [2] | Blepharoptosis, “out-of-circle” ratio and shell temperature after reserpine (effect in words) [3, 7] | Degree of eye closure / blepharoptosis after reserpine compared with I-1 (in words) ([3]; 10 mg/kg) | Improving akinesia, blepharoptosis and shell temperature: ranking among the tested compounds (in words) ([3]; 10 mg/kg) | Effect on autonomic activity of mice (in words) [4] | Number of Autonomic activity (time) ([4]; Experiment 2) | Immobility time in the forced swimming test in mice(s) [5, 8] [s] | Effect on immobility time in the forced swimming test (in words) [5] | Change in the shell temperature (T ° C.) [3, 10] [°C] | Degree of eye-closure [3, 11] | responders at 10 mg/kg [3, 12] [%] | Blepharoptosis, shell temperature and “out-of-circle” ratio compared with Compound I-1 (in words) ([3]; 10 mg/kg) | also measured
CC(C)CNC(=O)/C=C/c1cc2c(c(C(F)(F)F)c1)OCO2 [Compound I-5, N-isobutyl-5′-trifluoromethyl-3′,4′-methylenedioxy cinnamamide] | increased to some degree | remarkably reduce the immobility time; also recorded: reduce the immobility time of the mice in tail suspension test significantly; also recorded: significantly shorten the immobility time | improved significantly; also recorded: antagonizing the decrease of shell temperature, akinesia and improving the degree of eye closure | reduced | best effect | had no affect; also recorded: had no effect | 99.40 ± 19.67 | 78.58 ± 35.70 | shortening the immobility time; also recorded: shorten the immobility time |  |  |  |  | Effect on antagonizing immobility in tail suspension test compared with I-1 (in words) [2, 6]: better effect; “out-of-circle” ratio after reserpine compared with I-1 (in words) [3, 6]: increased markedly; Change in the shell temperature (ΔT ° C.) ([3]; Experiment 1, 10 mg/kg intragastric 7 days, reserpine 4 mg/kg i.p., abdomen, two hours after reserpine, ±SD): 1.32 ± 0.16 °C; Degree of eye-closure ([3]; Experiment 1, 10 mg/kg intragastric 7 days, reserpine 4 mg/kg i.p., ±SD): 0.42 ± 0.79**^ΔΔ; responders at 10 mg/kg ([3]; Experiment 1, 10 mg/kg intragastric 7 days, reserpine 4 mg/kg i.p.): 92%; Number of Autonomic activity (time) ([4]; Experiment 1, end of 1st min to 4th min): 94.75 ± 23.98 time; Immobility time in the forced swimming test in mice(s) ([5]; 5 mg/kg (low dose) intragastric once daily for 7 days): 91.20 ± 43.09 s; Dose dependence of the effect on immobility time in the forced swimming test ([5]; 5 and 10 mg/kg): dose-dependent effect
O=C(/C=C/c1cc2c(c(C(F)(F)F)c1)OCO2)N1CCCCC1 [Compound I-10] | increased to some degree | reduce the immobility time of the mice in tail suspension test significantly; also recorded: significantly shorten the immobility time | antagonizing the decrease of shell temperature, akinesia and improving the degree of eye closure | increased improvement |  | had no effect | 95.30 ± 15.06 | 83.07 ± 31.03 | shortening the immobility time; also recorded: shorten the immobility time | 27.15 ± 1.20 | 1.80 ± 1.32 | 30 |  | Blepharoptosis after reserpine (effect in words) [3, 9]: improve blepharoptosis of the mice significantly; Shell temperature and “out-of-circle” ratio after reserpine (effect in words) [3, 9]: to a certain degree but without statistically significant difference
CC(C)CNC(=O)CCc1cc2c(c(C(F)(F)F)c1)OCO2 [Compound I-11, N-isobutyl-3-(5′-trifluoromethyl-3′,4′-methylenedioxyphenyl)-propionamide] | increased to some degree | reduce the immobility time of the mice in tail suspension test significantly; also recorded: significantly shorten the immobility time | remarkably improve; also recorded: antagonizing the decrease of shell temperature, akinesia and improving the degree of eye closure |  | better effects | had no effect | 86.60 ± 23.08 |  |  | 30.20 ± 0.95 | 1.40 ± 0.97 | 50 | significantly improved effect | 
CC(C)CNC(=O)c1cc2c(c(C(F)(F)F)c1)OCO2 [Compound I-12, N-isobutyl-5-trifluoromethyl-3,4-methylenedioxy benzamide] | increased to some degree | reduce the immobility time of the mice in tail suspension test significantly; also recorded: significantly shorten the immobility time | remarkably improve; also recorded: antagonizing the decrease of shell temperature, akinesia and improving the degree of eye closure |  | better effects | had no effect | 93.20 ± 19.54 |  |  | 30.65 ± 1.16 | 1.50 ± 1.18 | 70 | significantly improved effect | 
